Patent publication US20160052926A1, “NOVEL PYRIMIDINE AND PYRIDINE COMPOUNDS AND USAGE THEREOF” (HUTCHISON MEDIPHARMA LIMITED, priority 2013, published 2016)

Legend:
[1] = biological target: Recombinant human FGFR1 (Homo sapiens, UniProt P11362); assay: Transcreener Kinase Assay of FGFR1; type: biochemical; conditions: read-out: FGFR1 (FP) IC50
[2] = biological target: Recombinant human FGFR2 (Homo sapiens, UniProt P21802); assay: Transcreener Kinase Assay of FGFR2; type: biochemical; conditions: read-out: FGFR2 (FP) IC50
[3] = biological target: FGFR3 kinase (Homo sapiens, UniProt P22607); assay: Z-Lyte Kinase Assay of FGFR3; type: biochemical
Summary of the method: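 FRET peptide-cleavage format: 1 h kinase reaction at RT (25-30[…]), then 1 h protease development, then stop and dual-emission read (Ex400, Em445/520 nm). Working solutions: kinase 0.7 μg/ml, Tyr 4 peptide 4 μM, ATP 300 uM in 1.33× buffer; eight compound concentrations from 1 μM, 2% DMSO final.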

[4] = system: KG-1; assay: Cellular Proliferation Assay (Cell Counting Kit-8), KG-1; type: cell-based; conditions: Homo sapiens, KG1 cells, 72 hours
Summary of the method: (§1)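 Proliferation was read as OD at 450 nm after 1 h with CCK-8, following 72 h drug exposure at 37 °C, 5% CO2. Inhibition was calculated against cells in 0.5% DMSO minus medium blank, and the 50% point reported. The compound series (10–0.004 μM, pre-addition, in 5% DMSO) was added one day after plating KG-1, SNU-16 and RT-112 at 30,000, 5,000 and 1,000 cells/well respectively.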

[5] = system: SNU-16; assay: Cellular Proliferation Assay (Cell Counting Kit-8), SNU-16; type: cell-based; conditions: Homo sapiens, SNU-16 cells, 72 hours
Summary of the method: as §1

[6] = system: RT-112; assay: Cellular Proliferation Assay (Cell Counting Kit-8), RT-112; type: cell-based; conditions: Homo sapiens, RT-112 cells, 72 hours
Summary of the method: as §1

FGFR3 kinase, sequence (P22607 23-806): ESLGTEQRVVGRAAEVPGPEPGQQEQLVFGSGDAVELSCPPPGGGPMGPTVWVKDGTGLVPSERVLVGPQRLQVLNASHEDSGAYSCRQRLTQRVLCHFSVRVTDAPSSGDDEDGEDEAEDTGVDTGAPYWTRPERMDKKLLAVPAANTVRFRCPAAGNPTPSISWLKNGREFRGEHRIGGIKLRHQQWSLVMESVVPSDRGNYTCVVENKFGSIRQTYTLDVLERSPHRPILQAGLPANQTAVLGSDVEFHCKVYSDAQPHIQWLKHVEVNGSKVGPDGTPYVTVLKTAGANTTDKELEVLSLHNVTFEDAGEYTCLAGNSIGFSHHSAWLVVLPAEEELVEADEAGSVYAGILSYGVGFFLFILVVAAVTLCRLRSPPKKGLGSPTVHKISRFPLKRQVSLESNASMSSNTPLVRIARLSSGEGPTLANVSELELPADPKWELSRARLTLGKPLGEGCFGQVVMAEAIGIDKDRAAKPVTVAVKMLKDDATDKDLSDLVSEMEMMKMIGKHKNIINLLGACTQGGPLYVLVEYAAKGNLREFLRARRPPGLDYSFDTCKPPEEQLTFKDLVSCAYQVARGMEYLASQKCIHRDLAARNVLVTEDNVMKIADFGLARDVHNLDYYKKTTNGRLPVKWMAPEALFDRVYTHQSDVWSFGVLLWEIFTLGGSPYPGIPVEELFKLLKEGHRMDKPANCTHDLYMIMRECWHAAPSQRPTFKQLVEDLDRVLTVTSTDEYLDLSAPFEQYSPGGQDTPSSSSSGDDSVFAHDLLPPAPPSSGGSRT
Recombinant human FGFR2, sequence (P21802 22-821): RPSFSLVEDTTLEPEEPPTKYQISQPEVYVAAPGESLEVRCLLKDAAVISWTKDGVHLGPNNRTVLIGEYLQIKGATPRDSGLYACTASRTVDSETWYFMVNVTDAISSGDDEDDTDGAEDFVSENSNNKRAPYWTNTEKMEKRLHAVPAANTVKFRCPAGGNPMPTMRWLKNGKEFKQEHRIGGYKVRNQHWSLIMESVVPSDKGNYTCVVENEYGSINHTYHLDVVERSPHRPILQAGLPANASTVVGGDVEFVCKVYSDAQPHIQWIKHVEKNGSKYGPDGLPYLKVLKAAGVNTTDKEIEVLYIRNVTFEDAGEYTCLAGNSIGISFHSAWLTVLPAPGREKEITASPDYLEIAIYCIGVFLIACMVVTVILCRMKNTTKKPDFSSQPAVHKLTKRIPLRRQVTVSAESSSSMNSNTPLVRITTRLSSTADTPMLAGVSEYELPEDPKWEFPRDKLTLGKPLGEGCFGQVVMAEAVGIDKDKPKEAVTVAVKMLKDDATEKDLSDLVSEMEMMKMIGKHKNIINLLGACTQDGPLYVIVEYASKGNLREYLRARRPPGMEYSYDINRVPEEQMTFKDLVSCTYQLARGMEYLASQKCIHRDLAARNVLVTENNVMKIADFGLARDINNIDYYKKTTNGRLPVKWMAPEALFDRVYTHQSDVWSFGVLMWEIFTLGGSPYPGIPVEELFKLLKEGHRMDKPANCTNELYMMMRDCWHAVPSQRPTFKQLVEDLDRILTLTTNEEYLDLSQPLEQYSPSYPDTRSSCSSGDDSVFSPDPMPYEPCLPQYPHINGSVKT
Recombinant human FGFR1, sequence (P11362 22-822): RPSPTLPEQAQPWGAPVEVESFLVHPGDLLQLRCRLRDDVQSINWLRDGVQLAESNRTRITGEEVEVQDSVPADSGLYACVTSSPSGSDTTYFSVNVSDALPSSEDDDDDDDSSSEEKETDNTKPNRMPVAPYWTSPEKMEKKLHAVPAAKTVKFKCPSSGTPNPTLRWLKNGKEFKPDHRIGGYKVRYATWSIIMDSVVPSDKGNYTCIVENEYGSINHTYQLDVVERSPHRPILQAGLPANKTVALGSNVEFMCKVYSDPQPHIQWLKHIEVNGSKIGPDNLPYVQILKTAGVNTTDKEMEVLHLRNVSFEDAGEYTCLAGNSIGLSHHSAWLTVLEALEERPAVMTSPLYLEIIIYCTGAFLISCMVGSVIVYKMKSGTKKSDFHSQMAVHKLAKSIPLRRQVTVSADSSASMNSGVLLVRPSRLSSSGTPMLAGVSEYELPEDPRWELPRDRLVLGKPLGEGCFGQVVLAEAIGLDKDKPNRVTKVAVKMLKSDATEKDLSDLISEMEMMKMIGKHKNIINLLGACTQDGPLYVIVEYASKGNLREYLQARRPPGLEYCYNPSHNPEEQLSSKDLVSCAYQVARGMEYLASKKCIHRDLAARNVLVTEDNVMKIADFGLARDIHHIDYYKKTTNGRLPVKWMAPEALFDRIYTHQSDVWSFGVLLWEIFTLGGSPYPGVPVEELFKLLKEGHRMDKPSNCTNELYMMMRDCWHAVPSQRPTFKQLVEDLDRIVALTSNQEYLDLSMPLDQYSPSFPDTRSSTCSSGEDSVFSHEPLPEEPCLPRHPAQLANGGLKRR

| SMILES | IC50 [1] | IC50 [2] | IC50 [3] | IC50 [5] | IC50 [4] | IC50 [6] |
| --- | --- | --- | --- | --- | --- | --- |
| CNC(=O)c1cc(CCc2cnc(Nc3cnn(CCS(C)(=O)=O)c3)nc2)c(Cl)c(OC)c1 [Compound 153] | 15 nM | 7 nM | 16 nM | 59 nM | 177 nM | 240 nM |
| CCN1CCC(Cn2cc(Nc3ncc(CCc4cc(C(=O)NC)cc(OC)c4Cl)cn3)cn2)CC1 [Compound 155] | 10 nM | 4 nM | 4 nM | 18 nM | 461 nM | 12 nM |
| COc1cc(C(=O)NC2CC2)cc(CCc2cnc(Nc3cnn(C)c3)nc2)c1Cl [Compound 157] | 20 nM | 10 nM | 19 nM | 48 nM | 48 nM | 254 nM |
| CNC(=O)c1cc(CCc2cnc(Nc3cnn([C@H]4CCCNC4)c3)nc2)c(F)c(OC)c1 [Compound 163] | 7 nM | 6 nM | 8 nM | 60 nM | 201 nM | 584 nM |
| CNC(=O)c1cc(CCc2cnc(Nc3cnn([C@@H]4CCCN(C)C4)c3)nc2)c(F)c(OC)c1 [Compound 165, (R)-4-fluoro-3-methoxy-N-methyl-5-(2-(2-(1-(1-methylpiperidin-3-yl)-1H-pyrazol-4-ylamino)pyrimidin-5-yl)ethyl)benzamide] | 11 nM | 7 nM | 7 nM | 23 nM | 56 nM | 106 nM |
| CCN1CC(n2cc(Nc3ncc(CCc4cc(C(=O)NC)cc(OC)c4F)cn3)cn2)C1 [Compound 167] | 18 nM | 10 nM | 15 nM | 48 nM | 62 nM | 382 nM |
| CNC(=O)c1cc(CCc2cnc(Nc3cnn([C@H]4CCN(C)C4)c3)nc2)c(F)c(OC)c1 [Compound 168] | 16 nM | 11 nM | 15 nM | 16 nM | 32 nM | 414 nM |
| CNC(=O)c1cc(CCc2cnc(Nc3cnn([C@@H]4CCN(C)C4)c3)nc2)c(F)c(OC)c1 [Compound 169] | 15 nM | 14 nM | 15 nM | 18 nM | 17 nM | 539 nM |
| CCN1CC[C@@H](n2cc(Nc3ncc(CCc4cc(C(=O)NC)cc(OC)c4F)cn3)cn2)C1 [Compound 171] | 43 nM | 41 nM | 50 nM | 48 nM | 128 nM | 655 nM |
| CNC(=O)c1cc(CCc2cnc(Nc3cnn(C4CCN(C)CC4)c3)nc2)c(F)c(OC)c1 [Compound 173] | 8 nM | 7 nM | 28 nM | 20 nM | 41 nM | 135 nM |
| CCN1CCC[C@@H](n2cc(Nc3ncc(CCc4cc(C(=O)NC)cc(OC)c4F)cn3)cn2)C1 [Compound 174] | 10 nM | 6 nM | 5 nM | 17 nM | 40 nM | 65 nM |
| CNC(=O)c1cc(CCc2cnc(Nc3cnn(C4CCN(C)CC4)c3)nc2)c(Cl)c(OC)c1 [Compound 177] | 6 nM | 5 nM | 9 nM | 19 nM | 25 nM | 86 nM |
| CCN1CCC(n2cc(Nc3ncc(CCc4cc(C(=O)NC)cc(OC)c4Cl)cn3)cn2)CC1 [Compound 178] | 14 nM | 15 nM | 18 nM | 27 nM | 72 nM | 186 nM |
| CONC(=O)c1cc(COc2cnc(Nc3cnn(C)c3)nc2)c(Cl)c(OC)c1 [Compound 185] | 5 nM | 3 nM | 4 nM | 2 nM | 2 nM | 5 nM |
| CNC(=O)c1cc(COc2cnc(Nc3ccc(N4CCNCC4)cc3)nc2)c(F)c(OC)c1 [Compound 188] | 8 nM | 5 nM | 10 nM | 6 nM | 20 nM | 12 nM |
| CCN(CC)CCn1cc(Nc2ncc(OCc3cc(C(=O)NC)cc(OC)c3F)cn2)cn1 [Compound 189] | 23 nM | 20 nM | 13 nM | 28 nM | 38 nM | 23 nM |
| CCN(CC)CCn1cc(Nc2ncc(OCc3cc(C(=O)NC)cc(OC)c3Cl)cn2)cn1 [Compound 190] | 12 nM | 9 nM | 7 nM | 16 nM | 37 nM | 17 nM |
| CNC(=O)c1cc(COc2ccc(Nc3ccc(N4C[C@@H](C)N[C@@H](C)C4)cc3)nc2)c(F)c(OC)c1 [Compound 191] | 181 nM | 68 nM | 334 nM | 534 nM | 647 nM | 540 nM |
| CNC(=O)c1cc(COc2cnc(Nc3ccc(N4C[C@@H](C)N[C@@H](C)C4)cc3)nc2)c(F)c(OC)c1 [Compound 192] | 12 nM | 6 nM | 8 nM | 2 nM | 8 nM | 14 nM |
| CNC(=O)c1cc(COc2cnc(Nc3ccc(N4C[C@@H](C)N[C@@H](C)C4)c(C)c3)nc2)c(F)c(OC)c1 [Compound 194] | 14 nM | 14 nM | 20 nM | 31 nM | 60 nM | 27 nM |

Continued by falling IC50 [1], values first:

| IC50 [1] | IC50 [2] | IC50 [3] | IC50 [5] | SMILES | IC50 [4] | IC50 [6] |
| --- | --- | --- | --- | --- | --- | --- |
| 69 nM | 56 nM | 91 nM | 202 nM | CCn1cc(Nc2ncc(CCc3cc(C(=O)NC)cc(OC)c3C#N)cn2)cn1 [Compound 179, 4-cyano-3-(2-(2-((1-ethyl-1H-pyrazol-4-yl)amino)pyrimidin-5-yl)ethyl)-5-methoxy-N-methylbenzamide] | 284 nM | 952 nM |
| 27 nM | 9 nM | 10 nM | 19 nM | CNC(=O)c1cc(COc2cnc(Nc3cnn(C)c3)nc2)c(F)c(OC)c1 [Compound 182] | 8 nM | 33 nM |
| 20 nM | 13 nM | 15 nM | 57 nM | CNC(=O)c1cc(CCc2cnc(Nc3cnn(C4CN(C)C4)c3)nc2)c(F)c(OC)c1 [Compound 166] | 69 nM | 592 nM |
| 19 nM | 5 nM | 9 nM | 8 nM | CCn1cc(Nc2ncc(OCc3cc(C(=O)NC)cc(OC)c3F)cn2)cn1 [Compound 181, 3-(((2-((1-ethyl-1H-pyrazol-4-yl)amino)pyrimidin-5-yl)oxy)methyl)-4-fluoro-5-methoxy-N-methylbenzamide] | 26 nM | 35 nM |
| 12 nM | 5 nM | 9 nM | 16 nM | CNC(=O)c1cc(CCc2cnc(Nc3cnn(CC4CCN(C)CC4)c3)nc2)c(Cl)c(OC)c1 [Compound 154] | 370 nM | 21 nM |
| 12 nM | 6 nM | 12 nM | 16 nM | CNC(=O)c1cc(COc2cnc(Nc3ccc(N4C[C@@H](C)N[C@@H](C)C4)c(F)c3)nc2)c(F)c(OC)c1 [Compound 195] | 25 nM | 25 nM |
| 9 nM | 6 nM | 6 nM | 14 nM | CNC(=O)c1cc(CCc2cnc(Nc3cnn([C@H]4CCCN(C)C4)c3)nc2)c(F)c(OC)c1 [Compound 172] | 22 nM | 64 nM |
| 9 nM | 6 nM | 8 nM | 14 nM | CCN1CCC[C@H](n2cc(Nc3ncc(CCc4cc(C(=O)NC)cc(OC)c4F)cn3)cn2)C1 [Compound 175] | 23 nM | 57 nM |
| 8 nM | 6 nM | 8 nM | 75 nM | CNC(=O)c1cc(CCc2cnc(Nc3cnn([C@@H]4CCCNC4)c3)nc2)c(F)c(OC)c1 [Compound 159, (R)-4-fluoro-3-methoxy-N-methyl-5-(2-(2-(1-(piperidin-3-yl)-1H-pyrazol-4-ylamino)pyrimidin-5-yl)ethyl)benzamide] | 290 nM | 759 nM |
| 8 nM | 5 nM | 11 nM | 17 nM | CNC(=O)c1cc(COc2cnc(Nc3ccc(N4CCNC(C)(C)C4)cc3)nc2)c(F)c(OC)c1 [Compound 193] | 62 nM | 21 nM |
| 7 nM | 7 nM | 8 nM | 17 nM | CCN1CCC(n2cc(Nc3ncc(CCc4cc(C(=O)NC)cc(OC)c4F)cn3)cn2)CC1 [Compound 176] | 66 nM | 100 nM |
| 5 nM | 4 nM | 5 nM | 7 nM | CNC(=O)c1cc(COc2cnc(Nc3ccc(N4C[C@@H](C)N[C@@H](C)C4)cc3)nc2)c(Cl)c(OC)c1 [Compound 186, 4-chloro-3-(((2-((4-((3S,5R)-3,5-dimethylpiperazin-1-yl)phenyl)amino)pyrimidin-5-yl)oxy)methyl)-5-methoxy-N-methylbenzamide] | 10 nM | 7 nM |
